Data published in a melting point compilation (Tetko et al.; mined from patent text by program, amines drawn as free bases though some values may be those of a salt).

| SMILES | melting point |
| --- | --- |
| CCc1n[nH]c(=O)c2c(C)ncn12 | 175 to 178 °C |
| O=C(O)c1nc(C2CC2)nc(NCc2ccco2)c1Cl | 150 to 152 °C |
| NS(=O)(=O)c1ccc(-c2[nH]c3ccc(Cl)cc3c2-c2ccc(Cl)cc2)cc1 | 245 to 247 °C |
| OC1(CNCc2ccccc2)CCN(CCc2c[nH]c3ccc(-n4cnnc4)cc23)C1 (stereo not drawn) | > 56 °C |
| CC1(C(=O)C(N)=O)CC1(Cl)Cl (stereo not drawn) | 92 to 93 °C |
| Cc1cc(C)n2ncc(F)c2n1 | 129 to 130 °C |
| CC(C)CSc1nc(N)nc2c1ncn2C1C=CC(CO)C1 (stereo not drawn) | 127 to 129 °C |
| COc1ccc(S(=O)(=O)N2C(=O)[C@@](c3ccccc3OC)(N3C[C@H](OC(=O)N(C)C)C[C@H]3C(=O)N(C)C)c3cc(Cl)ccc32)c(OC)c1 | 138 to 140 °C |
| CN1CCN(c2ccc(-n3c(-c4cc(-c5cnc6[nH]ccc6c5)ccn4)cn(C)c3=O)cc2C(F)(F)F)CC1 | 241 °C |
| Cc1cc(-c2ccc(Cl)c(OC3SCC(O)C(O)C3O)c2)ccn1 (stereo not drawn) | 137 °C |
| CC1(CC(=O)O)CCCC1=O (stereo not drawn) | 70 to 72 °C |
| C(CSc1nnc(SCCCN2CCOCC2)s1)CN1CCOCC1 | 65.5 to 66 °C |
| O=C1N(C(c2ccccc2)c2ccccc2)c2ccccc2C12COc1cc3c(cc12)OCCCO3 (stereo not drawn) | 165 to 168 °C |
| Cc1ccc(S(=O)(=O)N2CCCC2c2ccc(N(C)C)c(F)c2)cc1 (racemic) | 66 °C |
| Cc1cc(-n2ncc(-c3ccc(S(C)(=O)=O)cc3)c(-c3ccc(F)cc3)c2=O)ccc1F | 168 to 170 °C |
| O=C1Nc2ccccc2SC1CCBr (stereo not drawn) | 151 to 152 °C |
| O=Cc1c(Cl)nc2ccc(Cl)cn12 | 165 to 166 °C |
| COc1cc(-c2ccccc2)c(C=O)cc1CC(=O)O | 174 to 175 °C |
| COc1cc(N2C(=O)N(C)CC2O)c(F)cc1Cl (stereo not drawn) | 138 to 140 °C |
| CC(=O)OCC1(C)OCC2(CO1)COC(C)(COC(C)=O)OC2 (stereo not drawn) | 66 to 67 °C |
| CCCC(=O)Nc1cc(C(Cl)(Cl)Cl)ccn1 | 88 to 90 °C |
| CCCCCCCCSc1nc2ccccc2[nH]1 | 110 to 113 °C |
| O=C(Nc1cc(O)c(Cl)cc1O)c1ccc(O)c(F)c1 | 254 to 256 °C |

| SMILES | melting point |
| --- | --- |
| N#Cc1ccc(Oc2ncccc2C(=O)O)cc1 | 198 to 200 °C |
| CSc1nc(N)cc(OCCOCP(=O)(O)O)n1 | 210 to 211 °C |
| O=C1Nc2ccccc2OC1CCCN1CCC(Cc2ccccc2)CC1 (stereo not drawn) | 108 °C |
| CN(c1cccc2cc(C(=O)NCC(C)(C=O)SCc3ccccc3)[nH]c12)S(=O)(=O)c1cccs1 (stereo not drawn) | 149 to 150 °C |
| O=C1OCCN1c1ccc([N+](=O)[O-])c(C(F)(F)F)c1 | 112 to 113 °C |
| CCCCCCCCCCCCn1nnc(CCC(=O)Nc2c(OC)cc(OC)cc2OC)n1 | 86 to 88 °C |
| CC(=O)CC(=O)Nc1nc2ccc(NC(C)=O)cc2s1 | 248 to 250 °C |
| N#Cc1ccc(F)cc1-c1ccco1 | 55 to 56 °C |
| O=C(Oc1ccccc1)N1Cc2ccccc2C(c2ccccc2Cl)c2ccccc21 (stereo not drawn) | 95 to 99 °C |
| O=C(O)c1ccc(-c2ccncc2)cc1[N+](=O)[O-] | 314 to 316 °C |
| O=C(O)c1cccc(C(=O)c2ccc(F)cc2)c1 | 180 °C |
| COC1=NS(=O)(=O)N(C)C(Cl)=N1 | 77 to 83 °C |
| COC/C=C(C)/C=C/C(F)=C(C)/C=C/c1c(C)sc(C)c1C | 117 to 118 °C |
| CCN1C=C(C(=O)O)C(=O)CC1c1cccc(Cl)c1 (stereo not drawn) | 143 to 145 °C |
| CC1(C)CC(=O)C1(Cl)CC(Br)(Br)Br (stereo not drawn) | 95 to 97 °C |
| COC(=O)COc1c(Cl)cc(Cl)c(C#N)c1Cl | 110 to 112 °C |
| c1ccc(-c2ncc(-c3cnc(-c4ccncc4)[nH]3)cn2)cc1 | 300 °C |
| COc1ccc(Cl)cc1S(=O)(=O)Nc1onc(C)c1Br | 180 to 184 °C |
| O=c1[nH]c(=S)[nH]c2c1cnn2CC(O)c1ccccc1 (stereo not drawn) | 264 to 265 °C |
| OC[C@H]1CCc2cccc(O)c2O1 | 131 to 132 °C |
| CCCc1ccc(S(=O)(=O)n2c(CCC(=O)O)cc3cc(Cl)ccc32)cc1 | 144 to 148 °C |
| CCNC(=O)Nc1snc(C)c1C(=O)OCC | 150 to 151 °C |
| COC1(OC)C(=O)N(C)c2ccc(I)cc21 | 101 to 103 °C |

| SMILES | melting point |
| --- | --- |
| Cc1cc(C(=O)NC(=O)NC2CCCCC2)no1 | 180 °C |
| NS(=O)(=O)c1ccsc1C(=O)OC1COC1 | 158 to 160 °C |
| O=C(O)CCC(=O)c1cc2c(s1)CCc1ccccc1C2 | 202 to 203 °C |
| CC(=O)OCC(=O)C1(O)CCC2C3CCC4=CC(=O)CCC4(C)C3=CCC21C (stereo not drawn) | 234 °C |
| Oc1cc(-c2ccccc2)on1 | 150 to 151 °C |
| OCc1c(CO)c(-c2ccccc2)n2c1Cc1ccccc1-2 | 169 to 171 °C |
| C[C@@H](O[Si](C)(C)C(C)(C)C)[C@H]1C(=O)N[C@@H]1[C@@H](C)C(=O)C(C)(C)O[Si](C)(C)C | 162 °C |
| CCOC(=O)c1cc(NC(=O)C(Cc2cscn2)NC(=O)OC(C)(C)C)c[nH]1 (stereo not drawn) | 217 to 220 °C |
| CC1C(C)(C)C2=C(c3oncc3CC2)C1(C)C (stereo not drawn) | 81 °C |
| Fc1ccc2[nH]c3c(c2c1)CN(CCCc1cccnc1)CC3 | 215 to 218 °C |
| COc1ccc(C2(CCC(=O)O)SCCCS2)cc1OC | 134 to 135 °C |
| CCOC(=O)C=C(Nc1cn[nH]c1)C(=O)OCC | 69 to 71 °C |
| COc1ccc(NCc2c(F)c(F)c(C(F)(F)F)c(F)c2F)cc1C(=O)O | 94 °C |
| COc1ccc(SC)c2c1CC(N)(C#N)CC2 (stereo not drawn) | 128 to 130 °C |
| Cc1c(O)cc2c(c1C)N(C=O)CC2 | 192 to 193 °C |
| CN1CCN(C)C(c2ccc([N+](=O)[O-])cc2)C1=O (stereo not drawn) | 99 to 102 °C |
| COc1ccc(S(=O)(=O)Nc2cnccc2Nc2ccccc2)cc1 | 201 to 202 °C |
| COc1ccc(N2CCOCC2)c2sc(NC(=O)N(C)[C@H]3CC[C@H](O)CC3)nc12 | 158 to 162 °C |
| CCCCCCCCCC(=O)N[C@@H](C)C(=O)N[C@@H](Cc1ccccc1)C(=O)OC | 120 to 122 °C |
| CCN(CC)CCCn1[nH]c(C)c2c(=O)nc(-c3ccncc3)nc1-2 | 164 to 166 °C |
| O=C(O)COCCOCCN1C(=O)c2ccccc2C1=O | 88 to 90 °C |

Second part, the molecule after the results:

| melting point | SMILES |
| --- | --- |
| 175 to 177 °C | Cc1cc(-c2ccco2)ccc1-c1cc(C(F)(F)F)nn1-c1ccc(S(C)(=O)=O)cc1 |
| 123 to 126 °C | Cc1cccc(NC(=O)NC2N=C(C(C)C)c3ccccc3N(CC(=O)N3CC4CCC(CC4)C3)C2=O)c1 (stereo not drawn) |
| 233 to 235 °C | CCCCCCCc1ccc(-c2nc(C)c(C(C)=NNC(=N)N)s2)cc1 |
| 80 to 82 °C | Cc1ccc(S(=O)(=O)ON=C(CCN2C(=O)c3ccccc3C2=O)n2nc(C(C)(C)C)cc2N)cc1 |
| 100 to 102 °C | COc1cnc(CSc2nc3cc(OC(F)F)ccc3[nH]2)c(C)c1OC |
| 58 to 60 °C | CCOP(=O)(OCC)c1c(C)c2c(c(C)c1-c1c(OC)ccc3ccccc13)CN(S(=O)(=O)c1ccc(C)cc1)C2 |
| 162 to 165 °C | Cc1nc2cc(Cl)ccc2c(=O)n1C |
| 106 to 109 °C | CCCOC(Cc1ccc(OCCc2nc(-c3ccccc3)oc2C)c2ccsc12)C(=O)O (stereo not drawn) |
| 103 to 104 °C | CCOC(=O)c1cnc2ccn(-c3ccncc3)n2c1=O |
| 270 to 272 °C | CC1(C)CCC(C)(C)c2cc(-c3cc(-c4ccc(C(=O)O)cc4)ccc3OCCN3CCOCC3)ccc21 |
| 132 °C | c1ccc(C2CN=C3Sc4ccccc4N32)cc1 (stereo not drawn) |
| 222 to 223 °C | COc1ccc(OCC2(Cc3c(C)[nH]c(=O)c(C(C)C)c3O)CC2)cc1 |
| 102 to 104 °C | COc1ccnc(CSc2nc3cscc3n2C(=O)OCc2ccccc2)c1 |
| 213 °C | O=C(Nc1n[nH]c(=S)s1)NC(Cc1ccccc1)C(=O)NCc1ccc2c(c1)OCO2 (stereo not drawn) |
| 148 to 150 °C | Nc1nc2ccccc2c2c1ncn2CCCCNC(=O)CCc1ccccc1 |
| 114 to 115 °C | CCOC(=O)CCc1ccc2c3ccccc3n(Cc3ccccc3)c2c1C |
| 216 to 218 °C | CCOCc1nc2c(N)nc3cc(OCc4ccccc4C)ccc3c2n1CC(C)C |
| 126 °C | CCCCCOc1ccc2c(c1)C=C(CN)CO2 |

| melting point | SMILES |
| --- | --- |
| 73 to 79 °C | COc1cc(C2CCN(CC(O)CF)CC2)ccc1Nc1ncc2ccc(-c3ccccc3OC)n2n1 (stereo not drawn) |
| 91 to 93 °C | CC(C)n1c(=O)n(C)c(=O)c2cc(Cc3ccccc3)sc21 |
| 146 to 148 °C | N#CC(C#N)=Cc1ccc(OCc2ccccc2)cc1 |
| 134 to 139 °C | Cc1cc(Nc2ccccc2)nc(-n2nc(C)cc2C)n1 |
| 188 to 190 °C | CC(=O)N1CC(CCN2CCC(c3c[nH]c4cc(Cl)ccc34)CC2)c2ccccc21 (stereo not drawn) |
| 182 to 183 °C | Cc1cccnc1C(CO)COc1ccc(CC2SC(=O)NC2=O)cc1 (stereo not drawn) |
| 104 to 105 °C | CCN1c2ncc(CCc3cccc(N=[N+]=[N-])c3)cc2C(=O)N(C)c2ccc(Cl)nc21 |
| 226 to 230 °C | Cc1nc2c(N)nc3c(c2n1CC(C)C)CCNC3 |
| 148 to 150 °C | Cc1c(C)c2c(c(C)c1Nc1ccccc1)CC(C)(C)O2 |
| 118 °C | COC(=O)CCCc1cc2nc(C(F)(F)F)ccc2n1S(=O)(=O)c1ccc2c(c1)OCCN2C |
| 118 to 119 °C | CCOCc1nc2cnc3cccnc3c2n1Cc1ccccc1 |
| 232 to 234 °C | CC(C)n1nc(-c2sc(NC=O)nc2-c2ccccc2)ccc1=O |
| 150 to 152 °C | O=c1nc(-c2ccccc2)c2cc([N+](=O)[O-])ccc2n1CC1CCCO1 (stereo not drawn) |
| 200 to 201 °C | COc1ccc(C2=C(NC(=O)Nc3c(C)cccc3C(C)C)CN(C)c3ccc(Cl)cc32)cc1OC |
| 162 to 165 °C | O=C(O)c1ccc(Oc2nn(Cc3ccccc3)c3ccccc23)o1 |
| 104 to 105 °C | COC(=O)C1Oc2ccccc2Cc2cccc(C)c2O1 (stereo not drawn) |
| 169 to 171 °C | CCCc1nc2c(N)nc(C)c(C)c2n1CCCS(=O)(=O)c1ccc(C(=O)OCC)cc1 |
| 210 to 212 °C | NCc1cccc(Nc2ncnc3[nH]cc(C(=O)c4ccccc4)c23)c1 |
